In brackets after ≈: the same amount, converted by molar mass.
Key:
[1] = test system: Enterococcus faecalis; assay: Antibacterial activity against vancomycin-resistant Enterococcus faecalis ATCC 51299 assessed as inhibition of bacterial growth incubated for 16 to 24 hrs by broth microdilution method; type: functional; details: time 16-24 hrs
[2] = Cytotoxicity against human HaCaT cells assessed as cell viability at 50 uM after 24 hrs by MTT assay; type: cell-based; details: HaCaT cells, read-out: Activity
[3] = test system: Bacillus subtilis; assay: Antibacterial activity against Bacillus subtilis ATCC 6633 assessed as inhibition of bacterial growth incubated for 16 to 24 hrs by broth microdilution method; type: functional; details: time 16-24 hrs
[4] = test system: Staphylococcus epidermidis; assay: Antibacterial activity against Staphylococcus epidermidis ATCC 12228 assessed as inhibition of bacterial growth incubated for 16 to 24 hrs by broth microdilution method; type: functional; details: time 16-24 hrs
[5] = test system: Staphylococcus aureus; assay: Antibacterial activity against Staphylococcus aureus ATCC 6538 assessed as inhibition of bacterial growth incubated for 16 to 24 hrs by broth microdilution method; type: functional; details: time 16-24 hrs
[6] = Toxicity in Saccharomyces cerevisiae ATCC 2601 assessed as reduction in cell viability measured after 24 hrs by microdilution method; details: Saccharomyces cerevisiae, Saccharomyces cerevisiae ATCC 2601 cells
[7] = test system: HaCaT; assay: Cytotoxicity against human HaCaT cells assessed as reduction in cell viability at 50 uM after 24 hrs by MTT assay; type: cell-based
[8] = test system: Staphylococcus aureus; assay: Antibacterial activity against methicillin-sensitive Staphylococcus aureus ATCC 25923 assessed as inhibition of bacterial growth incubated for 16 to 24 hrs by broth microdilution method; type: functional; details: time 16-24 hrs
[9] = test system: Staphylococcus aureus; assay: Antibacterial activity against methicillin-resistant Staphylococcus aureus CIP106760 assessed as inhibition of bacterial growth incubated for 16 to 24 hrs by broth microdilution method; type: functional; details: time 16-24 hrs
[10] = test system: Enterococcus faecalis; assay: Antibacterial activity against Enterococcus faecalis ATCC 29212 assessed as inhibition of bacterial growth incubated for 16 to 24 hrs by broth microdilution method; type: functional; details: time 16-24 hrs
[11] = Antioxidant activity assessed as DPPH radical scavenging activity at 10 ug/ml by DPPH assay relative to control; type: functional; details: dose 10.0 µg/ml
[12] = Cytotoxicity against human HaCaT cells assessed as cell viability at 28 uM after 24 hrs by MTT assay; type: cell-based; details: read-out: Activity
[13] = Toxicity in Artemia salina assessed as mortality at 10 ug/ml measured after 24 hrs; details: at 10 µg/mL

SMILES	MBC [1] [µM]	MIC [1] [µM]	viability at 24 h, 50 µM [2] [%]	MBC [3] [µM]	MIC [3] [µM]	MBC [4] [µM]	MIC [4] [µM]	MBC [5] [µM]	MIC [5] [µM]	IC50 at 24 h [6] [µM]	Activity [7]	MBC [8] [µM]	MIC [8] [µM]	MBC [9] [µM]	MIC [9] [µM]	MBC [10] [µM]	MIC [10] [µM]	Activity [11] [%]	viability at 24 h, 28 µM [12] [%]	mortality at 24 h, 10 ug/ml [13] [%]
Cc1ccccc1C(c1cc([N+](=O)[O-])ccc1O)N1CCc2cc(Cl)ccc21 (stereo unspecified)	158 (≈ 62.4 µg/mL)	2.47 (≈ 0.975 µg/mL)	3	4.71 (≈ 1.86 µg/mL)	< 1.18	2.36 (≈ 0.932 µg/mL)	< 1.18	4.95 (≈ 1.95 µg/mL)	1.24 (≈ 0.49 µg/mL)	> 100	Toxic	39.6 (≈ 15.6 µg/mL)	2.47 (≈ 0.975 µg/mL)	2.47 (≈ 0.975 µg/mL)	1.24 (≈ 0.49 µg/mL)	9.89 (≈ 3.91 µg/mL)	1.24 (≈ 0.49 µg/mL)			
Cc1ccc(C(c2cc([N+](=O)[O-])ccc2O)N2CCc3ccccc32)cc1 (stereo unspecified)	173 (≈ 62.4 µg/mL)	21.7 (≈ 7.82 µg/mL)						43.4 (≈ 15.6 µg/mL)	10.8 (≈ 3.89 µg/mL)	> 100		347 (≈ 125 µg/mL)	21.3 (≈ 7.68 µg/mL)	5.42 (≈ 1.95 µg/mL)	2.71 (≈ 0.977 µg/mL)	86.7 (≈ 31.2 µg/mL)	10.8 (≈ 3.89 µg/mL)	> 80	20	
Cc1ccccc1C(c1cc([N+](=O)[O-])ccc1O)N1CCc2cc([N+](=O)[O-])ccc21 (stereo unspecified)	154 (≈ 62.4 µg/mL)	2.41 (≈ 0.977 µg/mL)		2.36 (≈ 0.957 µg/mL)	< 1.18	4.71 (≈ 1.91 µg/mL)	< 1.18	9.64 (≈ 3.91 µg/mL)	2.41 (≈ 0.977 µg/mL)	121		38.6 (≈ 15.6 µg/mL)	1.2 (≈ 0.486 µg/mL)	4.82 (≈ 1.95 µg/mL)	1.2 (≈ 0.486 µg/mL)	9.64 (≈ 3.91 µg/mL)	1.2 (≈ 0.486 µg/mL)			3
Cc1ccc(C(c2cc([N+](=O)[O-])ccc2O)N2CCc3cc(O)ccc32)cc1 (stereo unspecified)	108 (≈ 40.7 µg/mL)	135 (≈ 50.8 µg/mL)		> 9.43	2.4 (≈ 0.903 µg/mL)	302 (≈ 114 µg/mL)	37.8 (≈ 14.2 µg/mL)	332 (≈ 125 µg/mL)	166 (≈ 62.6 µg/mL)			542 (≈ 204 µg/mL)	67.7 (≈ 25.5 µg/mL)	108 (≈ 40.7 µg/mL)	67.7 (≈ 25.5 µg/mL)	108 (≈ 40.7 µg/mL)	135 (≈ 50.8 µg/mL)	> 80		

Source: ChEMBL document CHEMBL4837201, “Increased antibacterial properties of indoline-derived phenolic Mannich bases” (Eur J Med Chem, 2021)
